On the set-up of series [1]: species or system Cynomolgus Monkeys. Conditions: cynomolgus monkey, in vivo, po, 10 mg/kg. On the procedure:
A cross-over study design consisting of two groups with two animals per group was conducted to examine the pharmacokinetic properties of compound I-1 of the present disclosure.
Compound I-1 and AHU377 were administered to each group as follows: compound I-1 on Day 0 followed by AHU377 on Day 2 (Group 1), AHU377 on Day 0 followed by compound I-1 on Day 2 (Group 2). Each animal received a single 10 mg/kg (5 ml/kg) oral gavage dose of the specified study drug on the specified day. The animals were 2.5 to 3.5 years of age and weighed between 3.1 and 4.3 kg at the beginning of the study. Both compounds were formulated in 0.5% methylcellulose (400 cp) and 0.1% Tween 80 (w,v) in water. Blood samples for pharmacokinetics analysis were collected at t=0, 0.25, 0.5, 1, 2, 4, 8, 24 and 48 hours post dose on Day 0 and Day 2. Plasma was prepared by collecting whole blood samples into tubes containing K2EDTA and NaF (final concentrations: ˜1 mg/mL (K2EDTA) and ˜2 mg/mL (NaF)). These tubes were kept in an ice bath prior to centrifugation at approximately 2,000 rcf for 10 minutes at approximately 5° C. To each resultant plasma sample (target volume 200 μL), 4 μL of 50% phosphoric acid (v/v) was added.
[^13C4]-LBQ657 was added as an internal standard to the pharmacokinetic (PK) samples and calibration standards prior to analysis by LC-MS/MS. The LC-MS system consisted of an API6500+ mass spectrometer coupled to an Agilent 1290 HPLC system equipped with a CTC Pal autosampler. The mass spectrometer was operated in the positive ion mode.

Series [2] is classed as physicochemical. Conditions: pH 2. On the procedure: It was stable at pH of 4.7 and pH of 6.8 up to 70° C. for 3 days.

As to `CCOC(=O)[C@H](C)C[C@@H](Cc1ccc(-c2ccccc2)cc1)NC(=O)CCC(=O)N[C@@H](CC(C)C)C(=O)O` [Compound I-1, (4-(((2S,4R)-1-([1,1′-biphenyl]-4-yl)-5-ethoxy-4-methyl-5-oxopentan-2-yl)amino)-4-oxobutanoyl)-L-leucine], in series [1], the “compound I-1 concentrations in plasma” value is “below the lower limit of quantitation” and the tolerability entry is reported as “well tolerated”. Also, in series [1] (male), the “relative bioavailability compared to AHU377 based on AUC values” is given as 72% and the “relative bioavailability compared to AHU377 based on Cmax values” was 30%. Further, the degradation in solution in series [2] (1 day) is reported as 18.27%. The “solution stability under acidic conditions” value in series [2] is recorded as “unstable”.
